# Results taken from patent US9980943B2, “Methods of treating muscular dystrophy” (BOARD OF REGENTS OF THE NEVADA SYSTEM OF HIGHER EDUCATION, …, priority 2013, dated 2018).
# Tests used:
# Assay type in all cases: cell-based, mouse
# [1] = tested on: α7 integrin (LacZ reporter in α7+/LacZ myotubes); assay: Myotube α7 integrin FDG assay (Burkin assay in myotubes, 96-well); conditions: myotubes
# [2] = tested on: α7 integrin (LacZ reporter in α7βgal+/− myoblasts); assay: Myoblast α7+/LacZ integrin FDG assay (Burkin assay in myoblasts, 96-well); conditions: α7+/LacZ myoblasts, 96-well
# [3] = tested on: β-galactosidase in CMV-LacZ C2C12 myotubes; assay: CMV-LacZ secondary screen in C2C12 myotubes (β-Gal stabilizing assay); conditions: for CMV-LACZ in Myotubes, signal relative to DMSO: C2C12 CMV-LacZ myotubes, fold relative to DMSO; for CMV-LACZ in Myotubes (β-galactosidase activity relative to DMSO): CMV-LacZ C2C12 myotubes, 96-well format
# Summary of the method: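 Stable CMV-LacZ C2C12 clone; six-point curve 0.5–40 μM; duplicates.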
SMILES,"Burkin Assay in Myotubes, α7 integrin LacZ reporter signal relative to DMSO ([1]; 0.5 uM)","Burkin Assay in Myotubes, α7 integrin LacZ reporter signal relative to DMSO ([1]; 1 uM)","Burkin Assay in Myotubes, α7 integrin LacZ reporter signal relative to DMSO ([1]; 5 uM)","Burkin Assay in Myotubes, α7 integrin LacZ reporter signal relative to DMSO ([1]; 10 uM)","CMV-LACZ in Myotubes, signal relative to DMSO ([3]; 5 uM)","CMV-LACZ in Myotubes, signal relative to DMSO ([3]; 10 uM)","CMV-LACZ in Myotubes, signal relative to DMSO ([3]; 20 uM)","CMV-LACZ in Myotubes, signal relative to DMSO ([3]; 40 uM)",Burkin Assay in Myotubes (signal relative to DMSO) ([1]; 0.5 uM),Burkin Assay in Myotubes (signal relative to DMSO) ([1]; 1 uM),Burkin Assay in Myotubes (signal relative to DMSO) ([1]; 5 uM),Burkin Assay in Myotubes (signal relative to DMSO) ([1]; 10 uM),Burkin Assay in Myotubes (signal relative to DMSO) ([1]; 20 uM),Burkin Assay in Myotubes (signal relative to DMSO) ([1]; 40 uM),"Burkin Assay in Myoblasts, value relative to DMSO ([2]; 0.5 uM)","Burkin Assay in Myoblasts, value relative to DMSO ([2]; 1 uM)","Burkin Assay in Myoblasts, value relative to DMSO ([2]; 5 uM)","Burkin Assay in Myoblasts, value relative to DMSO ([2]; 10 uM)","Burkin Assay in Myoblasts, value relative to DMSO ([2]; 20 uM)","Burkin Assay in Myoblasts, value relative to DMSO ([2]; 40 uM)",also measured
CN(C)C1(CN=Cc2cc(Cl)cc([N+](=O)[O-])c2O)CCCCC1 [MLS001179695-01],1.053,0.949,1.199,0.9922,1.183,1.095,1.175,1.047,,,,,,,,,,,,,"Burkin Assay in Myotubes, α7 integrin LacZ reporter signal relative to DMSO ([1]; 20 uM): 0.9298; Burkin Assay in Myotubes, α7 integrin LacZ reporter signal relative to DMSO ([1]; 40 uM): 0.8546; Burkin Assay in Myoblasts, signal relative to DMSO ([2]; 0.5 uM): 1.033; Burkin Assay in Myoblasts, signal relative to DMSO ([2]; 1 uM): 0.9441; Burkin Assay in Myoblasts, signal relative to DMSO ([2]; 5 uM): 0.8752; Burkin Assay in Myoblasts, signal relative to DMSO ([2]; 10 uM): 0.9871; Burkin Assay in Myoblasts, signal relative to DMSO ([2]; 20 uM): 0.8923; Burkin Assay in Myoblasts, signal relative to DMSO ([2]; 40 uM): 0.8068"
CCOc1ccc2ccccc2c1C1NC(=O)N(C)C(C)=C1C(=O)OCCOC (stereo not shown) [MLS001167424-01],,,,,0.7491,0.9718,1.157,0.9925,1.046,0.9596,1.365,0.7848,1.0277,0.9779,0.9904,1.428,0.8924,0.907,0.7995,0.8164,
Cc1cc(NC(=O)CN2C(=O)/C(=C/c3ccccc3F)SC2=S)no1 [MLS001219159-01],,,,,0.9354,0.9316,0.9636,1.023,0.861,0.9965,0.807,1.064,0.9474,0.9507,0.9597,1.059,0.9161,0.9644,0.9199,0.952,
CNc1nnc(SCC(=O)c2cc(C)n(C3CC3)c2C)s1 [MLS002156485-01],,,,,,,,,1.0551,0.9807,1.2005,1.0687,1.057,1.156,1.059,0.9382,0.9278,0.8752,1.052,1.026,CMV-LACZ in Myotubes (β-galactosidase activity relative to DMSO) ([3]; 5 uM): 0.9468; CMV-LACZ in Myotubes (β-galactosidase activity relative to DMSO) ([3]; 10 uM): 0.9523; CMV-LACZ in Myotubes (β-galactosidase activity relative to DMSO) ([3]; 20 uM): 1.115; CMV-LACZ in Myotubes (β-galactosidase activity relative to DMSO) ([3]; 40 uM): 0.9483
O=C(/C(=C(/[O-])c1ccccc1)[n+]1ccccc1)c1ccc([N+](=O)[O-])cc1 [MLS000705922-01],,,,,,,,,0.8984,1.137,0.8511,0.9544,0.9072,1.039,0.9627,1.02,0.7282,0.7283,0.8892,0.8783,CMV-LACZ in Myotubes (β-galactosidase activity relative to DMSO) ([3]; 5 uM): 0.8776; CMV-LACZ in Myotubes (β-galactosidase activity relative to DMSO) ([3]; 10 uM): 0.9306; CMV-LACZ in Myotubes (β-galactosidase activity relative to DMSO) ([3]; 20 uM): 0.9302; CMV-LACZ in Myotubes (β-galactosidase activity relative to DMSO) ([3]; 40 uM): 0.9947
CN(C)S(=O)(=O)c1cccc(C(=O)Nc2ccc3c(c2)CCC3)c1 [MLS001176611-01],,,,,,,,,0.9506,0.6671,1.066,0.9301,0.9665,0.9846,1.049,0.994,1.097,1.072,0.8398,0.9134,CMV-LACZ in Myotubes (β-galactosidase activity relative to DMSO) ([3]; 5 uM): 0.9287; CMV-LACZ in Myotubes (β-galactosidase activity relative to DMSO) ([3]; 10 uM): 1.235; CMV-LACZ in Myotubes (β-galactosidase activity relative to DMSO) ([3]; 20 uM): 1.034; CMV-LACZ in Myotubes (β-galactosidase activity relative to DMSO) ([3]; 40 uM): 0.785
Oc1c(Br)cc(Br)cc1CNc1cccc2cccnc12 [MLS001183429-01],0.8042,0.823,0.8557,0.733,0.8436,0.944,0.9105,0.5809,,,,,,,,,,,,,"Burkin Assay in Myotubes, α7 integrin LacZ reporter signal relative to DMSO ([1]; 20 uM): 0.4076; Burkin Assay in Myotubes, α7 integrin LacZ reporter signal relative to DMSO ([1]; 40 uM): 0.2629; Burkin Assay in Myoblasts, signal relative to DMSO ([2]; 0.5 uM): 0.7592; Burkin Assay in Myoblasts, signal relative to DMSO ([2]; 1 uM): 0.6652; Burkin Assay in Myoblasts, signal relative to DMSO ([2]; 5 uM): 0.7821; Burkin Assay in Myoblasts, signal relative to DMSO ([2]; 10 uM): 0.7373; Burkin Assay in Myoblasts, signal relative to DMSO ([2]; 20 uM): 0.5666; Burkin Assay in Myoblasts, signal relative to DMSO ([2]; 40 uM): 0.3329"
O=C(Nc1ccc(Cl)cc1N1CCOCC1)C1CCCCC1 [MLS001060549-01],,,,,1.322,0.8952,0.8814,1.075,0.8181,1.071,0.9783,1.111,0.9391,0.9134,1.056,1.204,1.012,1.072,0.7731,0.9411,
COC(=O)c1ccc(COC(=O)CNC(=O)c2cccs2)cc1 [MLS001123810-01],,,,,0.8812,0.815,1.159,0.9346,0.974,0.9657,1.417,1.116,0.9515,0.9694,0.9767,0.9524,0.9782,0.9779,0.8853,0.8729,
Cc1cccn2c(=O)c3cc(C(=O)NC4CCCCC4)n(C)c3nc12 [MLS001117351-01],1.025,0.9924,0.8315,0.9463,1.016,1.088,1.1481,0.8952,,,,,,,,,,,,,"Burkin Assay in Myotubes, α7 integrin LacZ reporter signal relative to DMSO ([1]; 20 uM): 0.7669; Burkin Assay in Myotubes, α7 integrin LacZ reporter signal relative to DMSO ([1]; 40 uM): 0.6986; Burkin Assay in Myoblasts, signal relative to DMSO ([2]; 0.5 uM): 1.103; Burkin Assay in Myoblasts, signal relative to DMSO ([2]; 1 uM): 1.105; Burkin Assay in Myoblasts, signal relative to DMSO ([2]; 5 uM): 0.7718; Burkin Assay in Myoblasts, signal relative to DMSO ([2]; 10 uM): 0.7445; Burkin Assay in Myoblasts, signal relative to DMSO ([2]; 20 uM): 0.7137; Burkin Assay in Myoblasts, signal relative to DMSO ([2]; 40 uM): 0.4323"
